For 20 compounds, viability, Activity and cytotoxicity results are on record in ChEMBL document CHEMBL3352561, “Synthesis of natural and non-natural curcuminoids and their neuroprotective activity against glutamate-induced oxidative stress in HT-22 cells” (J Nat Prod, 2014).

Data set [1] can be described thus: Cytotoxicity against mouse HT22 cells assessed as cell viability at 10 uM after 24 hrs by MTT assay relative to control. Format: cell-based, HT-22. To be noted: read-out: Activity. On the technique in general: Tetrazolium assays rely on reduction of a dye to a coloured formazan, in cell work by metabolically active cells.
The nature of data set [2]: Cytotoxicity against mouse HT22 cells assessed as cell viability at 25 uM after 24 hrs by MTT assay relative to control. The data set is classed as cell-based, HT-22. To be noted: read-out: Activity.
In data set [3] the test system is HT-22. Briefly: Neuroprotective activity against glutamate-induced neuronal cell death in mouse HT22 cells assessed as increase in cell viability at 1 to 25 uM after 24 hrs by MTT assay relative to control. The data set is classed as functional, cell-based.
The test system of data set [4] is HT-22. Briefly: Neuroprotective activity against glutamate-induced neuronal cell death in mouse HT22 cells assessed as increase in cell viability at 10 uM after 24 hrs by MTT assay relative to control. The data set is classed as functional.
Data set [5] concerns HT-22. Briefly: Neuroprotective activity against glutamate-induced neuronal cell death in mouse HT22 cells assessed as increase in cell viability at 25 uM after 24 hrs by MTT assay relative to control. Format: functional, cell-based.
The subject of data set [6] is HT-22. Put plainly: Neuroprotective activity against t-BuOOH-induced neuronal cell death in mouse HT22 cells assessed as increase in cell viability at 1 to 100 uM after 20 hrs by MTT assay relative to control. The data set is classed as functional, cell-based.
A short description of data set [7]: Cytotoxicity against mouse HT22 cells assessed as reduction in cell viability at 10 uM after 24 hrs by MTT assay relative to control. The data set is classed as cell-based, HT-22. To be noted: read-out: INH.
A short description of data set [8]: Cytotoxicity against mouse HT22 cells assessed as reduction in cell viability at 25 uM after 24 hrs by MTT assay relative to control. Format: cell-based, HT-22. To be noted: read-out: INH.
Data set [9] is described as follows: (§1) Cytotoxicity against mouse HT22 cells assessed as cell viability at 1 to 25 uM after 24 hrs by MTT assay relative to control. The data set is classed as cell-based, HT-22. To be noted: HT22 cells, read-out: Activity.
Data set [10] concerns HT-22. Briefly: Neuroprotective activity against glutamate-induced neuronal cell death in mouse HT22 cells assessed as increase in cell viability after 24 hrs by MTT assay relative to control. The data set is classed as functional, cell-based.
Data set [11] concerns HT-22. Described as §1. The data set is classed as cell-based. Particulars: ht-22, 24 h, 25 µM.
A short description of data set [12]: Cytotoxicity against mouse HT22 cells assessed as cell viability at 1 uM after 24 hrs by MTT assay relative to control. Format: cell-based, HT-22. To be noted: read-out: Activity.
The test system of data set [13] is HT-22. Briefly: Neuroprotective activity against glutamate-induced neuronal cell death in mouse HT22 cells assessed as increase in cell viability at 10 to 25 uM after 24 hrs by MTT assay relative to control. Format: functional, cell-based.
The subject of data set [14] is HT-22. Put plainly: Neuroprotective activity against glutamate-induced neuronal cell death in mouse HT22 cells assessed as increase in cell viability at 5 uM after 24 hrs by MTT assay relative to control. The data set is classed as functional.

Each structure is given as a SMILES string. Activity calls are given as the source filed them. The rule behind the calls is not given here.

As for `O=C(/C=C/c1ccc(O)cc1)CCCCc1ccc(O)cc1`, the viability at 24 h, 10 µM in [1] was found to be 43%. The viability at 24 h, 25 µM in data set [2] came to 25%. Moreover, the outcome with HT-22 [3] was inactive.
Turning to `O=C(/C=C/c1ccc(O)c(O)c1)CCCCc1ccc(O)c(O)c1`, the viability at 24 h, 25 µM in [2] stood at 78%. For the same compound, in the data set with HT-22 [4], the result was inactive. Further, the outcome in the data set on HT-22 [5] and in the data set on HT-22 [6] was Active.
As to `COc1cc(CCCCC(=O)CCc2ccc(O)cc2)ccc1O`, the viability at 24 h, 10 µM in [1] worked out at 71%. For the same compound, the outcome with HT-22 [3] was inactive.
For the compound `COc1cc(/C=C/C(=O)CC(=O)/C=C/c2ccc(O)c(OC)c2)ccc1O` [CURCUMIN], the cytotoxicity at 24 h, 10 µM in [7] stood at 18%. Also, in data set [8], the cytotoxicity at 24 h, 25 µM turned out to be 36%.
With `Oc1ccc(CCCCC(O)CCc2ccc(O)cc2)cc1` (racemic), the viability at 24 h, 10 µM in [1] came to 43%. Besides, in [2], the viability at 24 h, 25 µM is 25%. For the same compound, the result in the data set on HT-22 [3] was inactive.
Regarding `COc1cc(CCCCC(O)CCc2ccc(O)cc2)ccc1O` (centres undefined), in data set [1], the viability at 24 h, 10 µM came out at 74%. In addition, in the data set on HT-22 [3], the result was inactive.
`COc1cc(/C=C/C(C)=O)ccc1O`: in the data set with HT-22 [3], the result was inactive.
Consider `COc1cc(CCC(=O)CCCCc2ccc(O)cc2)ccc1O`, for which the viability at 24 h, up to 25 µM in data set [9] amounted to 37%. Besides, in the data set with HT-22 [10], the Activity entry is “Dose-dependent effect”. Further, in the data set on HT-22 [5], the outcome was Active.
Consider `O=C(/C=C/c1ccc(O)cc1)CC(=O)/C=C/c1ccc(O)cc1` [BISDEMETHOXYCURCUMIN], for which the Activity entry in the data set with HT-22 [11] was “Toxic”.
Turning to `COc1cc(CCCCC(=O)/C=C/c2ccc(O)cc2)ccc1O`, in data set [1], the viability at 24 h, 10 µM turned out to be 67%. Besides, the result in the data set on HT-22 [3] was inactive.
On to `O=C(CCCCc1ccc(O)cc1)CCc1ccc(O)cc1`, for which, in [1], the viability at 24 h, 10 µM amounted to 43%. Further, the viability at 24 h, 25 µM in data set [2] was determined as 25%.
Take `COc1ccc(CCCCC(=O)CCc2ccc(OC)c(OC)c2)cc1OC`: the viability at 24 h, 25 µM in [2] is 43%. For the same compound, the viability at 24 h, 1 µM in [12] was found to be 75%. Further, the outcome in the data set with HT-22 [13] was inactive.
Turning to `COc1cc(/C=C/C(O)=C/C(=O)/C=C/c2ccc(O)cc2)ccc1O` [DEMETHOXYCURCUMIN], in the data set on HT-22 [11], the Activity result was “Toxic”. The result with HT-22 [3] was inactive.
On to `COc1cc(/C=C/C(=O)CCCCc2ccc(O)c(OC)c2)ccc1O`, for which the viability at 24 h, 10 µM in data set [1] was determined as 66%. The Activity result in the data set on HT-22 [10] is “Dose-dependent effect”; with HT-22 [14] it was 47%; in the data set on HT-22 [4], 62%. Also, in the data set with HT-22 [6], the result was inactive.
As for `CC(=O)/C=C/c1ccc(O)cc1`, in data set [9], the viability at 24 h, up to 25 µM came out at 50%. For the same compound, the outcome in the data set on HT-22 [3] was inactive.
Consider `COc1cc(/C=C/C(=O)CCCCc2ccc(O)cc2)ccc1O`, for which the viability at 24 h, 10 µM in data set [1] was 68%. For the same compound, the Activity result in the data set on HT-22 [10] was “Dose-dependent effect”.
With `COc1cc(CCC(O)CCCCc2ccc(O)cc2)ccc1O` (centres undefined), in [1], the viability at 24 h, 10 µM was 75%. Further, the Activity result with HT-22 [10] was “Dose-dependent effect”. Moreover, the result with HT-22 [5] was Active.
As for `O=C(/C=C/c1ccc(O)c(O)c1)CC(=O)/C=C/c1ccc(O)c(O)c1` [DIDEMETHYLCURCUMIN], in the data set with HT-22 [11], the Activity result is on record as “Toxic”.
Regarding `COc1cc(CCCCC(=O)CCc2ccc(O)c(OC)c2)ccc1O`, the viability at 24 h, 10 µM in data set [1] is 70%. The Activity entry in the data set with HT-22 [10] is “Dose-dependent effect”. Also, the result in the data set with HT-22 [5] was Active.
As for `COc1cc(CCCCC(O)CCc2ccc(O)c(OC)c2)ccc1O` (centres undefined), in data set [1], the viability at 24 h, 10 µM turned out to be 73%. For the same compound, in the data set with HT-22 [10], the Activity result was “Dose-dependent effect”. Further, in the data set with HT-22 [5], the outcome was Active.
